Assay results reported in patent US8486991B2, “Enantiomerically pure phosphoindoles as HIV inhibitors” (Idenix Pharmaceuticals, Inc., priority 2006, dated 2013).

How the values were obtained:
[1] = In vitro half-life in liver microsomes, rat; type: in vitro ADME; settings: microsomes, up to one hour, longer half-lives are extrapolated, n=1
Experimental: (§1) In vitro metabolism was assessed using liver microsomes for all species. Compounds were incubated at 1 μM with liver microsomes for up to one hour. Reported half-lives greater than the total incubation time are extrapolated values. Extracts were assayed for disappearance of parent compound by LC-MS/MS detection.
(§2) Data represents one independent experiment conducted.

[2] = In vitro half-life in liver microsomes, dog; type: in vitro ADME; settings: microsomes, up to one hour, longer half-lives are extrapolated, n=1
Experimental: as §1, §2

[3] = In vitro half-life in liver microsomes, monkey; type: in vitro ADME; settings: microsomes, up to one hour, n=1
Experimental: as §1, §2

[4] = In vitro half-life in liver microsomes, human; type: in vitro ADME; settings: microsomes, up to one hour, longer half-lives are extrapolated, n=1
Experimental: as §1, §2

CYP3A4 = CYP3A4 (Homo sapiens, UniProt P08684); test: Recombinant CYP450 inhibition, fluorometric, CYP3A4; type: in vitro ADME; parameters: from tissue; host or cells: pooled human liver microsomes
Experimental: (§3) Compounds were assayed using recombinant human microsomal proteins with fluorometric substrates. Signal was measured with a Fusion plate reader utilizing the appropriate excitation and emission wavelength set to detect the specific metabolite: […]

[5] = system: CYP3A4 (activation of PXR in DPX2 cells); test: CYP3A4 induction screen in DPX2 cells; type: cell-based, human; settings: extent compared with rifampicine, mifepristone, androstanol
Source text: The potential for in vitro induction of CYP3A4 was screened in DPX2 cells. The DPX2 cell line is a derivative of a human hepatocellular carcinoma cell line (HepG2) transformed with the human pregnane x receptor (PXR) and a reporter gene vector containing the enhancer region of CYP3A4. The potential for in vitro induction of CYP1A2 was screened in CYP1A2-DRE cells. The CYP1A2-DRE cell line is a stably transformed HepG2 cells with dioxin response elements (DRE) and reporter gene containing CYP1A2 promoter elements. The extent of CYP3A4 induction was determined by comparing the activation of PXR obtained with test article to that obtained with rifampicine (potent inducer), mifepristone (moderate inducer) and androstanol (weak inducer). The extent of CYP1A2 induction was determined by comparing the activation of the aryl hydrocarbon receptor (AhR) obtained with test article to that obtained with TCDD (potent inducer), omeprazole (moderate inducer), and 2-acetylaminofluorene (weak inducer).

CYP2C9 = CYP2C9 (Homo sapiens, UniProt P11712); test: Recombinant CYP450 inhibition, Luciferin-H, CYP2C9; type: in vitro ADME; parameters: from tissue; host or cells: pooled human liver microsomes; settings: highest concentration tested 10 μM
Experimental: CYP2C9 inhibition was performed by incubating a luminogenic CYP450 substrate Luciferin-H with CYP2C9 and an NADPH regeneration system. Luminescence measured using a Fusion plate reader.

CYP2D6 = CYP2D6 (Homo sapiens, UniProt P10635); test: Recombinant CYP450 inhibition, fluorometric, CYP2D6; type: in vitro ADME; parameters: from tissue; host or cells: pooled human liver microsomes; settings: recombinant enzyme, read-out: percentage of inhibition at the highest concentration tested, CYP2D6
Experimental: as §3

CYP3A4, sequence (P08684 whole entry, the tested form may be a part): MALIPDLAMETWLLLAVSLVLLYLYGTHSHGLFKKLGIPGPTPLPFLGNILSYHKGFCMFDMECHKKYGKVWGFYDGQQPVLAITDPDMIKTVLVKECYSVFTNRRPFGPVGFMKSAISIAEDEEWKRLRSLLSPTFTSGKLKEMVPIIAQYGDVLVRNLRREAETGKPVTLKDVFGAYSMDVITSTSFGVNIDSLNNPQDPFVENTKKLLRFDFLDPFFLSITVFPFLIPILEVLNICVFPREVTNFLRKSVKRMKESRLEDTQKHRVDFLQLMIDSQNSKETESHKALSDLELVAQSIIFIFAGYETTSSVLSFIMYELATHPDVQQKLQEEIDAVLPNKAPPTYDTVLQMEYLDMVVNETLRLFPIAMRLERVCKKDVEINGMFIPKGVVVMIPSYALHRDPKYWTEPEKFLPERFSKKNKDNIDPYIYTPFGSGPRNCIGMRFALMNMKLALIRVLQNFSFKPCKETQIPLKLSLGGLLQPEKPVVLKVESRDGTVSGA
CYP2C9, sequence (P11712 whole entry, the tested form may be a part): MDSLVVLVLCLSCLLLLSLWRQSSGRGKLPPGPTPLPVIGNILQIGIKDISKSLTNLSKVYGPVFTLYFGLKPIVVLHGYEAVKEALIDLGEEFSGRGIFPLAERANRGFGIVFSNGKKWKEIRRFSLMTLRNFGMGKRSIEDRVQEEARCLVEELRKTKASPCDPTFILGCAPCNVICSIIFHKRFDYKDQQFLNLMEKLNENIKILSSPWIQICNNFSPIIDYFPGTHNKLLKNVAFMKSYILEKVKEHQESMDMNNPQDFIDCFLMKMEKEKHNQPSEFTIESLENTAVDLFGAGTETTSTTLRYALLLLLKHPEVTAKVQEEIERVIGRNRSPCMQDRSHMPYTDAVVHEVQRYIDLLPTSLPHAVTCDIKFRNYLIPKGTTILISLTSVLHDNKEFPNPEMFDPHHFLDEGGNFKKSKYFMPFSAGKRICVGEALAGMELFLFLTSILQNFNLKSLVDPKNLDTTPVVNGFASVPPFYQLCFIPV
CYP2D6, sequence (P10635 whole entry): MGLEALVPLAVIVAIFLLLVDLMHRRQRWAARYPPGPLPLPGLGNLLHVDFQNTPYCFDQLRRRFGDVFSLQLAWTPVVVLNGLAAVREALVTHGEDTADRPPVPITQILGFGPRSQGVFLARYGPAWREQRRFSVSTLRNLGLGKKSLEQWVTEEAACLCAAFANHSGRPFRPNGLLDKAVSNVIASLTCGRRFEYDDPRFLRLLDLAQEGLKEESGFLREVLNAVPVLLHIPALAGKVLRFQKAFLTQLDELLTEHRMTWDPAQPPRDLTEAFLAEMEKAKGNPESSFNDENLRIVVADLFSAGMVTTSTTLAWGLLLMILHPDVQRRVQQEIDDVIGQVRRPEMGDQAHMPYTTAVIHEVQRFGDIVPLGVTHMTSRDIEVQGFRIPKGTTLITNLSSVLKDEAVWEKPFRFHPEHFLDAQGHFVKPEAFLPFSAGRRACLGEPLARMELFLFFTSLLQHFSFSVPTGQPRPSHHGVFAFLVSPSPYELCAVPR

Row | SMILES | half-life at 1 μM [1] [h] | half-life at 1 μM [2] [h] | half-life at 1 μM [3] [h] | half-life at 1 μM [4] [h] | IC50 (CYP3A4) [nM] | Induction, DPX2 (CYP3A4) [5] | IC50 (CYP2C9) [nM] | inhibition at 10 µM (CYP2D6) [%]
1 | COP(=O)(c1cc(C)cc(/C=C/C#N)c1)c1c(C(N)=O)[nH]c2ccc(Cl)c(F)c12 (racemic) [rac (I + II), 5-chloro-4-fluoro-3-[methyl 3-((E)-2-cyanovinyl)-5-methylphenyl]phosphinoyl-1H-indole-2-carboxamide] | 2.43 | 4.78 | 0.307 | 1.92 | 1610 |  |  | 
2 | COP(=O)(c1cc(C)cc(/C=C/C#N)c1)c1c(C(N)=O)[nH]c2ccc(Cl)cc12 (racemic) [rac (III + IV), 5-chloro-3-[methyl 3-((E)-2-cyanovinyl)-5-methylphenyl]phosphinoyl-1H-indole-2-carboxamide] | 1.75 | 4.28 | 0.272 | 1.52 | 2270 | Moderate (n = 1) | 5990 | 16 to 23
